In US20150105252A1, “SUBSTITUTED PYRAZOLES AS HERBICIDES” (E I DU PONT DE NEMOURS AND COMPANY, priority 2013, published 2015):

Legend:
barnyardgrass = assay: Test B flood; assay type: in vivo, Echinochloa crus-galli; conditions: 250 g ai/ha, visual rating on 0 to 100 scale (0 no effect, 100 complete control), 13 to 15 days
Procedure, shortened: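 Each compound is applied to the floodwater of pots holding 2-leaf seedlings, water standing 3 cm over the soil throughout. Plants stay in a greenhouse 13 to 15 days before visual scoring against controls from 0 (no effect) to 100 (complete control).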

oilseed rape = assay: Test C postemergence; assay type: in vivo, Brassica napus; conditions: for Plant response rating (scale of 0 to 100 where 0 is no effect and 100 is complete control), Oilseed Rape: Postemergence, 31 g ai/ha, visually evaluated after 13 to 15 days; for Oilseed Rape plant response rating / Plant response rating, Oilseed Rape: postemergence; for Oilseed Rape plant response rating: 62 g ai/ha, scale 0 to 100
Procedure, shortened: (§1)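 Scores of 0 (no effect) to 100 (complete control) were assigned by eye after 13–15 days, comparing treated pots with controls. Soil-applied (preemergence) treatments went onto seeds in loam and sand; foliar (postemergence) treatments onto 1- to 4-leaf plants in peat medium.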

nutsedge, yellow = assay: Test C postemergence; assay type: in vivo, Cyperus esculentus; conditions: for Plant response rating (scale of 0 to 100 where 0 is no effect and 100 is complete control), Nutsedge, Yellow: Postemergence, 31 g ai/ha, visually evaluated after 13 to 15 days; for Nutsedge, Yellow plant response rating / Plant response rating, Nutsedge, Yellow: postemergence; for Nutsedge, Yellow plant response rating: 62 g ai/ha, scale 0 to 100
Procedure, shortened: as §1

foxtail, giant = assay: Test C preemergence; assay type: in vivo, Setaria faberii; conditions: for Plant response rating (scale of 0 to 100), Foxtail, Giant: Preemergence, 250 g ai/ha
Procedure, shortened: as §1

waterhemp [1] = assay: Test C preemergence; assay type: in vivo, Amaranthus rudis; conditions: for Plant response rating (scale of 0 to 100), Waterhemp: Preemergence, 250 g ai/ha
Procedure, shortened: as §1

lambsquarters = assay: Test C preemergence; assay type: in vivo, Chenopodium album; conditions: for Plant response rating (scale of 0 to 100), Lambsquarters: Preemergence, 250 g ai/ha
Procedure, shortened: as §1

crabgrass, large = assay: Test C preemergence; assay type: in vivo, Digitaria sanguinalis; conditions: for Plant response rating (scale of 0 to 100), Crabgrass, Large: Preemergence, 250 g ai/ha
Procedure, shortened: as §1

wheat = assay: Test A postemergence; assay type: in vivo, Triticum aestivum
Procedure, shortened: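 Greenhouse test in loam soil/sand blend; compounds formulated in non-phytotoxic solvent with surfactant, applied as preemergence directed soil spray or postemergence to plants 2–10 cm tall at one- to two-leaf stage. Injury rated visually versus untreated controls after approximately 10 days on a 0 (no effect) to 100 (complete control) scale.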

waterhemp [2] = assay: Test C postemergence; assay type: in vivo, Amaranthus rudis; conditions: for Plant response rating (scale of 0 to 100 where 0 is no effect and 100 is complete control), Waterhemp: Postemergence, 31 g ai/ha, visually evaluated after 13 to 15 days; for Waterhemp plant response rating / Plant response rating, Waterhemp: postemergence; for Waterhemp plant response rating: 62 g ai/ha, scale 0 to 100
Procedure, shortened: as §1

pigweed = assay: Test C preemergence; assay type: in vivo, Amaranthus retroflexus; conditions: for Plant response rating (scale of 0 to 100), Pigweed: Preemergence, 250 g ai/ha
Procedure, shortened: as §1

morningglory [3] = assay: Test C postemergence; assay type: in vivo, Ipomoea coccinea; conditions: for Plant response rating (scale of 0 to 100 where 0 is no effect and 100 is complete control), Morningglory: Postemergence, 31 g ai/ha, visually evaluated after 13 to 15 days; for Morningglory plant response rating / Plant response rating, Morningglory: postemergence; for Morningglory plant response rating: 62 g ai/ha, scale 0 to 100
Procedure, shortened: as §1

morningglory [4] = assay: Test C preemergence; assay type: in vivo, Ipomoea coccinea; conditions: for Plant response rating (scale of 0 to 100), Morningglory: Preemergence, 250 g ai/ha
Procedure, shortened: as §1

velvetleaf = assay: Test C preemergence; assay type: in vivo, Abutilon theophrasti; conditions: for Plant response rating (scale of 0 to 100), Velvetleaf: Preemergence, 250 g ai/ha
Procedure, shortened: as §1

[5] = 250 g ai/ha, scale 0 to 100 (0 no effect, 100 complete control)
[6] = 125 g ai/ha, scale 0 to 100, 0 no effect, 100 complete control
[7] = preemergence, 31 g ai/ha, visual rating, scale 0 to 100 (0 no effect, 100 complete control), 13 to 15 days
[8] = preemergence, 62 g ai/ha, 13 to 15 days, scale 0 to 100, 0 = no effect, 100 = complete control
[9] = preemergence, 125 g ai/ha, scale 0 to 100, 0 is no effect, 100 is complete control
[10] = Postemergence, 500 g ai/ha, visual rating after approx. 10 days, 0 to 100 scale (0 no effect, 100 complete control)
[11] = postemergence, 125 g ai/ha, about 10 days, visual rating on 0 to 100 scale (0 no effect, 100 complete control)
[12] = preemergence, 62 g ai/ha, scale 0 to 100 (0 no effect, 100 complete control), 13 to 15 days

What does the source list for CCOc1cc(C(=O)NCC(F)(F)F)nn1Cc1ccnc(C(F)(F)F)c1 [Compound 104]?
Plant response rating, Barnyardgrass (barnyardgrass): 75; Plant response rating (scale of 0 to 100 where 0 is no effect and 100 is complete control), Oilseed Rape (oilseed rape): 40; Oilseed Rape plant response rating (oilseed rape): 50; Plant response rating, Oilseed Rape (oilseed rape; [5]): 85; Plant response rating, Oilseed Rape (oilseed rape; [6]): 60; Plant response rating (scale of 0 to 100 where 0 is no effect and 100 is complete control), Nutsedge, Yellow (nutsedge, yellow): 5; Nutsedge, Yellow plant response rating (nutsedge, yellow): 5; Plant response rating, Nutsedge, Yellow (nutsedge, yellow; [5]): 60; Plant response rating, Nutsedge, Yellow (nutsedge, yellow; [6]): 10; Plant response rating (scale of 0 to 100), Foxtail, Giant (foxtail, giant): 100; Foxtail, Giant plant response rating (foxtail, giant; [7]): 100; Plant response rating, Foxtail, Giant (foxtail, giant; [8]): 100; Foxtail, Giant plant response rating (foxtail, giant; [9]): 100; Plant response rating (scale of 0 to 100), Waterhemp (waterhemp [1]): 100; Waterhemp plant response rating (waterhemp [1]; [7]): 100; Plant response rating, Waterhemp (waterhemp [1]; [8]): 100; Waterhemp plant response rating (waterhemp [1]; [9]): 100; Plant response rating (scale of 0 to 100), Lambsquarters (lambsquarters): 100; Lambsquarters plant response rating (lambsquarters; [7]): 98; Plant response rating, Lambsquarters (lambsquarters; [8]): 98; Lambsquarters plant response rating (lambsquarters; [9]): 100; Plant response rating (scale of 0 to 100), Crabgrass, Large (crabgrass, large): 100; Crabgrass, Large plant response rating (crabgrass, large; [7]): 100; Plant response rating, Crabgrass, Large (crabgrass, large; [8]): 100; Crabgrass, Large plant response rating (crabgrass, large; [9]): 100; Wheat plant response rating (wheat; [10]): 70; Wheat plant response rating (wheat; [11]): 70; Plant response rating (scale of 0 to 100 where 0 is no effect and 100 is complete control), Waterhemp (waterhemp [2]): 35; Waterhemp plant response rating (waterhemp [2]): 85; Plant response rating, Waterhemp (waterhemp [2]; [5]): 98; Plant response rating (scale of 0 to 100), Pigweed (pigweed): 100; Pigweed plant response rating (pigweed; [7]): 100; Plant response rating, Pigweed (pigweed; [8]): 100; Pigweed plant response rating (pigweed; [9]): 100; Plant response rating (scale of 0 to 100 where 0 is no effect and 100 is complete control), Morningglory (morningglory [3]): 0; Morningglory plant response rating (morningglory [3]): 80; Plant response rating, Morningglory (morningglory [3]; [5]): 98; Plant response rating, Morningglory (morningglory [3]; [6]): 95; Plant response rating (scale of 0 to 100), Morningglory (morningglory [4]): 100; Morningglory plant response rating (morningglory [4]; [7]): 100; Plant response rating, Morningglory (morningglory [4]; [8]): 100; Morningglory plant response rating (morningglory [4]; [9]): 100; Plant response rating (scale of 0 to 100), Velvetleaf (velvetleaf): 100; Velvetleaf plant response rating (velvetleaf; [7]): 100; Plant response rating, Velvetleaf (velvetleaf; [8]): 100; Velvetleaf plant response rating (velvetleaf; [9]): 100

Which results are given for CCCc1cc(C(=O)NCC(F)(F)F)nn1Cc1ccnc(C(F)(F)F)c1 [Compound 105]?
Plant response rating, Barnyardgrass (barnyardgrass): 90; Plant response rating (scale of 0 to 100 where 0 is no effect and 100 is complete control), Oilseed Rape (oilseed rape): 45; Oilseed Rape plant response rating (oilseed rape): 50; Plant response rating, Oilseed Rape (oilseed rape; [5]): 90; Plant response rating, Oilseed Rape (oilseed rape; [6]): 85; Plant response rating (scale of 0 to 100 where 0 is no effect and 100 is complete control), Nutsedge, Yellow (nutsedge, yellow): 5; Nutsedge, Yellow plant response rating (nutsedge, yellow): 5; Plant response rating, Nutsedge, Yellow (nutsedge, yellow; [5]): 40; Plant response rating, Nutsedge, Yellow (nutsedge, yellow; [6]): 20; Plant response rating (scale of 0 to 100), Foxtail, Giant (foxtail, giant): 100; Foxtail, Giant plant response rating (foxtail, giant; [7]): 100; Foxtail, Giant plant response rating (foxtail, giant; [12]): 100; Foxtail, Giant plant response rating (foxtail, giant; [9]): 100; Plant response rating (scale of 0 to 100), Waterhemp (waterhemp [1]): 100; Waterhemp plant response rating (waterhemp [1]; [7]): 100; Waterhemp plant response rating (waterhemp [1]; [12]): 100; Waterhemp plant response rating (waterhemp [1]; [9]): 100; Plant response rating (scale of 0 to 100), Lambsquarters (lambsquarters): 100; Lambsquarters plant response rating (lambsquarters; [7]): 85; Lambsquarters plant response rating (lambsquarters; [12]): 100; Lambsquarters plant response rating (lambsquarters; [9]): 100; Plant response rating (scale of 0 to 100), Crabgrass, Large (crabgrass, large): 100; Crabgrass, Large plant response rating (crabgrass, large; [7]): 100; Crabgrass, Large plant response rating (crabgrass, large; [12]): 100; Crabgrass, Large plant response rating (crabgrass, large; [9]): 100; Wheat plant response rating (wheat; [10]): 100; Wheat plant response rating (wheat; [11]): 100; Plant response rating (scale of 0 to 100 where 0 is no effect and 100 is complete control), Waterhemp (waterhemp [2]): 65; Waterhemp plant response rating (waterhemp [2]): 75; Plant response rating, Waterhemp (waterhemp [2]; [5]): 85; Plant response rating, Waterhemp (waterhemp [2]; [6]): 75; Plant response rating (scale of 0 to 100), Pigweed (pigweed): 100; Pigweed plant response rating (pigweed; [7]): 100; Pigweed plant response rating (pigweed; [12]): 100; Pigweed plant response rating (pigweed; [9]): 100; Plant response rating (scale of 0 to 100 where 0 is no effect and 100 is complete control), Morningglory (morningglory [3]): 80; Morningglory plant response rating (morningglory [3]): 80; Plant response rating, Morningglory (morningglory [3]; [5]): 95; Plant response rating, Morningglory (morningglory [3]; [6]): 85; Plant response rating (scale of 0 to 100), Morningglory (morningglory [4]): 100; Morningglory plant response rating (morningglory [4]; [7]): 100; Morningglory plant response rating (morningglory [4]; [12]): 100; Morningglory plant response rating (morningglory [4]; [9]): 100; Plant response rating (scale of 0 to 100), Velvetleaf (velvetleaf): 100; Velvetleaf plant response rating (velvetleaf; [7]): 98; Velvetleaf plant response rating (velvetleaf; [12]): 100; Velvetleaf plant response rating (velvetleaf; [9]): 100
